One experiment relates to WT FA1090. Put plainly: Etest antibiotic susceptibility, WT strain. The class given is cell-based, Neisseria gonorrhoeae. The note with it: ~22 h, MIC repeated at least twice of three, unit assumed. On the procedure:
The henotypes associated with deletion of metQ were explored. […] It was first examined whether complete elimination of MetQ affects cell envelope homeostasis by exposing bacteria to seven antibiotics with different mechanisms of action using Etest assays.
(§1) Briefly, non-piliated colonies of each strain were suspended in GCBL to a turbidity equivalent to that of a 0.5 McFarland standard and spread on 150 mm tissue culture dishes filled with 50 mL GCB to a thickness of 4 mm. Etest strips were placed on the agar surface and plates were cultured for ~22 h, at which point the MICs were determined. Sensitivity assessments were performed three times, and MIC values that repeated at least twice are reported.

Experiment [1] concerns isogenic knockout ΔmetQ (FA1090). Put plainly: Etest antibiotic susceptibility, ΔmetQ knockout. The experiment is classed as cell-based, Neisseria gonorrhoeae. The note with it: ~22 h, MIC repeated at least twice of three, unit assumed.
From the text: (§2) Prokaryotic lipoproteins play versatile functions ranging from cell envelope stability to nutrient acquisition, substrate binding for ABC transporter systems, modulation of the host immune system, signal transduction, and virulence (Kovacs-Simon et al.Infect Immun 79, 548-561 (2011); Hayashi and Wu, PLoS pathogens 14, e1007081 (2018)). […] The henotypes associated with deletion of metQ were explored. A null mutant in ngo2139 ΔmetQ) and its complemented mutant ΔmetQ/Plac::metQ in Ng FA1090 were constructed (Zielke et al., Mol Cell Proteomics 15, 2338-2355 (2016)). It was first examined whether complete elimination of MetQ affects cell envelope homeostasis by exposing bacteria to seven antibiotics with different mechanisms of action using Etest assays.
as §1, with “Etest antimicrobial sensitivity assessments: The susceptibility of WT FA1090, isogenic knockout ΔmetQ, and complementation strain ΔmetQ/Plac: :metQ to seven antimicrobial compounds was assessed by Etests as previously (Zielke et al., PLoS pathogens 14, e1007081 (2018)), according to manufacturer’s instructions. Briefly,” for “Briefly,”

The subject of experiment [2] is complementation strain ΔmetQ/Plac::metQ (FA1090). Put plainly: Etest antibiotic susceptibility, complementation strain. The experiment is classed as cell-based, Neisseria gonorrhoeae. The note with it: ~22 h, MIC repeated at least twice of three.
From the text: as §2
as §1, with “Etest antimicrobial sensitivity assessments: The susceptibility of WT FA1090, isogenic knockout ΔmetQ, and complementation strain ΔmetQ/Plac: :metQ to seven antimicrobial compounds was assessed by Etests as previously (Zielke et al., PLoS pathogens 14, e1007081 (2018)), according to manufacturer’s instructions. Briefly,” for “Briefly,”

A further experiment deals with rMetQ. Put plainly: Pilot immunogenicity: immunoblot of rMetQ with serum of immunized mice. The note with it: BALB/c mice, groups of 5; subcutaneous prime, three intranasal boosts. The class given is in vivo, Neisseria gonorrhoeae. Here is the method: First, the immunogenicity of rMetQ was tested by immunizing groups of 5 BALB/c mice with rMetQ, rMetQ-CpG, CpG, or PBS using a subcutaneous prime immunization, followed by a regimen of three intranasal boost doses. A robust, single protein band corresponding to the molecular weight of rMetQ (~30 kDa) was detected in immunoblots with serum derived from mice immunized with rMetQ alone. […] Based on these encouraging results, large-scale immunization/challenge experiments were performed. […] Vaginal washes were collected after the second boost, and antigen-specific antibody titers were assessed in serum collected 14 days after the third boost. […] Bacterial clearance was assessed by enumerating Ng CFUs present in vaginal washes on days 1, 3, 5, and 7 post-infection (FIG. 3C). […]
Densitometry analysis: The expression of MetQ during WT FA1090 infection in female BALB/c mice and intensities of protein bands detected in serum specificity studies were determined by densitometry using FIJI software (Schindelin et al., Nature methods 9, 676-682 (2012)). The amount of MetQ on day 1 post-infection was arbitrarily set to 1 and the protein abundance on days 3 and 5 is expressed relative to the MetQ cellular pool detected on day 1.
Background: In western blotting, separated proteins are transferred to a membrane and probed.

Converted amounts (≈) assume the structure as drawn. Marks after values point to notes of the source that are not given here.

Turning to `CC[C@H]1OC(=O)[C@H](C)[C@@H](O[C@H]2C[C@@](C)(OC)[C@@H](O)[C@H](C)O2)[C@H](C)[C@@H](O[C@@H]2O[C@H](C)C[C@H](N(C)C)[C@H]2O)[C@](C)(O)C[C@@H](C)CN(C)[C@H](C)[C@@H](O)[C@]1(C)O` [Azithromycin], the MIC (Etest) against WT FA1090 is 0.032 µg/mL (≈ 0.0427 µM); in experiment [1], 0.032 µg/mL (≈ 0.0427 µM); in experiment [2] it was 0.5^b.

Take `CC1(C)S[C@@H]2[C@H](NC(=O)Cc3ccccc3)C(=O)N2[C@H]1C(=O)O` [Benzylpenicillin]: the MIC (Etest) (against WT FA1090; in experiment [1]; in experiment [2] (unit assumed)) was 0.064 µg/mL (≈ 0.191 µM) in each case.

For the molecule `CO/N=C(\C(=O)N[C@@H]1C(=O)N2C(C(=O)O)=C(COC(C)=O)CS[C@H]12)c1csc(N)n1` [Cefotaxime], the MIC (Etest) in the experiment with WT FA1090 came to 0.004 µg/mL (≈ 0.00878 µM); in experiment [1], 0.004 µg/mL (≈ 0.00878 µM); in experiment [2] (unit assumed), 0.008 µg/mL (≈ 0.0176 µM).

In the case of `CN[C@H](CC(C)C)C(=O)N[C@H]1C(=O)N[C@@H](CC(N)=O)C(=O)N[C@H]2C(=O)N[C@H]3C(=O)N[C@H](C(=O)N[C@H](C(=O)O)c4cc(O)cc(O)c4-c4cc3ccc4O)[C@H](O)c3ccc(c(Cl)c3)Oc3cc2cc(c3O[C@@H]2O[C@H](CO)[C@@H](O)[C@H](O)[C@H]2O[C@H]2C[C@](C)(N)[C@H](O)[C@H](C)O2)Oc2ccc(cc2Cl)[C@H]1O` [Vancomycin], the MIC (Etest) (in the experiment on WT FA1090; in experiment [1]; in experiment [2] (unit assumed)) was 8 µg/mL (≈ 5.52 µM) throughout.

As for Polymyxin B, the MIC (Etest) (in the experiment on WT FA1090; in experiment [1]; in experiment [2] (unit assumed)) was 64 µg/mL each time.

B1: rMetQ: untagged recombinant N. gonorrhoeae FA1090 MetQ lacking the lipoprotein signal peptide; sequence in FIG. 8 (SEQ ID NO: 4) (protein, listed as Neisseria gonorrhoeae)
chain: GAMEKDSAPAASAAAPSADNGAAKKEIVFGTTVGDFGDMVKEQIQAELEKKGYTVKLVEFTDYVRPNLALAEGELDINVFQHKPYLDDFKKEHNLDITEAFQVPTAPLGLYPGKLKSLEEVKDGSTVSAPNDPSNFARALVMLNELGWIKLKDGINPLTASKADIAENLKNIKIVELEAAQLPRSRADVDFAVVNGNYAISSGMKLTEALFQEPSFAYVNWSAVKTADKDSQWLKDVTEAYNSDAFKAYAHKRFEGYKYPAAWNEGAAKKLAAA
With B1, in the experiment with rMetQ, the “Immunoblot intensity of rMetQ band probed with serum” value is reported as 44,405 relative intensity units.

The values are drawn from US20230241196A1, “GONORRHEA SUBUNIT VACCINE” (priority 2020, published 2023).
